# How the values were obtained:
# [1] = system: OVCA cell lines (A2780S, A2780CP, A2008, C13); assay: CellTiter-96 MTS proliferation assay quantifying cisplatin-resistance after serial cisplatin treatment; type: cell-based; details: cells after serial in vitro cisplatin-treatment/expansion cycles vs cells prior to serial cisplatin treatment
# Text: FIGS. 3(A)-(D) are a series of graphs showing BAD-protein phosphorylation is associated with platinum resistance. Cisplatin EC50 so results and percent expression of phosphorylated-BAD at serine-155 (P-BAD155), non-phosphorylated BAD (NP-BAD155), total BAD, and PP2C (PPM1A) in (A) A2780S; (B) A2780CP; (C) A2008; and (D) C13 ovarian cancer cell lines measured by MTS and immunofluorescence, respectively.
# Cell lines were induced for platinum resistance. […] Both cisplatin-resistance and genome-wide expression changes were measured serially in each cell line at baseline and after 3 and 6 cisplatin-treatment/expansion cycles. Cisplatin-resistance was quantified using CellTiter-96 MTS proliferation assays (Thermo Fisher Scientific Inc., Waltham, Mass.) and analyzed genome-wide expression using Affymetrix Human U133 Plus 2.0 GeneChips (Affymetrix, Inc., Santa Clara, Calif.) as previously described (Boren, et al., MicroRNAs and their target messenger RNAs associated with ovarian cancer response to chemotherapy. Gynecol Oncol 2009; 113:249-255; Bild, et al., Oncogenic pathway signatures in human cancers as a guide to targeted therapies. Nature 2006; 439:353-357) (Gene Expression Omnibus (GEO) accession number GSE23553).
# A2780S and A2780CP cells = assay: Percent apoptotic nuclei after cisplatin treatment of transfected cells; type: cell-based
# Experimental: FIGS. 4(A)-(D) is a composite figure showing modulation of BAD-protein phosphorylation status influences cisplatin sensitivity. OVCA cell lines (A) A2780S and (B) A2780CP were transfected with Flag vectors expressing wild-type BAD (WT) or BAD harboring serine (S) to alanine point mutations in serine-112, -136, or -155(S112A, S136A, S155A). These S to A phosphorylation site mutations prevent phosphorylation of the BAD protein. Transfected cells were treated with vehicle or 1 μM (A2780S) or 10 μM (A2780CP) cisplatin for 48 hours and evaluated for the presence of apoptotic nuclei. (C) Western blot showing depletion of PP2C and PKA by siRNA. Controls included a non-targeting siRNA (NT). GAPDH was used as a loading control. (D) Percent apoptotic nuclei in A2780S cells in the presence of 1 μM cisplatin after siRNA depletion of PKA and PP2C. Error bars indicate standard error of the mean.
# Morphologic assessment of condensed chromatin and fragmented DNA quantified percent apoptotic nuclei. Cells were fixed in 4% paraformaldehyde, and nuclei were stained with bis-benzimide trihydrochloride (0.5 μg/ml; Molecular Probes) and quantified using fluorescence microscopy (Marchion, et al., Synergistic interaction between histone deacetylase and topoisomerase II inhibitors is mediated through topoisomerase IIbeta. Clin Cancer Res 2005; 11:8467-8475).
# Cells were transfected with siRNA drawn against different BAD pathway proteins. RNA duplexes for PP2C/PPM1A (s10909 from ABI), cAMP-dependent protein kinase (PKA; 6406 from Cell Signaling Technology, Inc., Danvers, Mass.), and vectors containing mutated BAD (pFlag-600) were transfected using the Nucleofector transfection kit, with non-targeting Silencer negative control #2 siRNA (Applied Biosystems, Inc., Foster City, Calif.), according to manufacturer's protocols (Amaxa GmbH, Koeln, Del.). The role of pBAD (serine-155) in cisplatin sensitivity was further evaluated in A2780S cells by depletion of PKA and PP2C/PPM1A using siRNA.
compound,measurement,setting,value
"N.N.[Cl][Pt][Cl] [cisplatin, cis-diammine-dichloroplatinum]",cisplatin EC50,[1],higher cisplatin EC50 values
same,cisplatin-induced apoptosis,"A2780S and A2780CP cells; A2780S and A2780CP transfected with BAD[S136A], BAD[S155A] vs wild-type BAD, 1 μM (A2780S) or 10 μM (A2780CP) cisplatin, 48 hours",increased cisplatin-induced apoptosis
same,cisplatin-induced apoptosis,"A2780S and A2780CP cells; A2780S, siRNA depletion of PKA vs non-targeting control siRNA, 1 μM cisplatin",increased cisplatin-induced apoptosis
same,cisplatin-induced apoptosis,"A2780S and A2780CP cells; A2780S, siRNA depletion of PP2C/PPM1A, 1 μM cisplatin",decreased cisplatin-induced apoptosis
same,cisplatin sensitivity,"A2780S and A2780CP cells; cells transfected with BAD[S112A], 1 μM (A2780S) or 10 μM (A2780CP) cisplatin, 48 hours",no effect on cisplatin sensitivity

# Reference: patent publication US9528982B2, “Bad phosphorylation determines ovarian cancer chemo-sensitivity and patient survival” (H. Lee Moffitt Cancer Center and Research Institute, Inc., priority 2011, dated 2016)
